Reference: PMC9114115, “Property space mapping of Pseudomonas aeruginosa permeability to small molecules” (Scientific Reports, 2022)
Where “and” joins values, the source holds several entries; their conditions need not be identical. Identical values can stand only once. Like-named read-outs stand apart in the source and are kept apart here.

How the values were obtained:
P. aeruginosa PAO1 = test: MIC by two-fold dilution, wild type PAO1; type: cell-based, Pseudomonas aeruginosa; conditions: PAO1, MOPS-M9 medium, read-out: MICs
Protocol: (§1) In all experiments, P. aeruginosa PAO1-Pore (PAO1 attTn7::PLAC-fhuA) and PΔ3-Pore (ΔmexAB ΔmexCD ΔmexXY attTn7::PLAC-fhuA) strains were used[29]. Strains were routinely grown in Luria–Bertani (LB) or MOPS-M9 medium at 37 °C with aeration. MICs shown in Tables 1 and 2 were determined by a two-fold dilution method in LB broth and MOPS-M9 medium, respectively, following the previously described protocol.

P. aeruginosa PAO1-Pore = test: MIC by two-fold dilution, hyperporinated PAO1-Pore; type: cell-based, Pseudomonas aeruginosa; conditions: for MICs: PAO1-Pore; for MIC: Pseudomonas aeruginosa, PAO1, read-out: MICs
Protocol: as §1

P. aeruginosa PΔ3 = test: microbe, parasite or virus in culture; type: cell-based, Pseudomonas aeruginosa; conditions: for MIC: Pseudomonas aeruginosa, read-out: MICs; for MICs: P∆3, MOPS-M9 medium
Protocol: as §1

P. aeruginosa PΔ3-Pore = test: MIC by two-fold dilution, barrierless PΔ3-Pore; type: cell-based, Pseudomonas aeruginosa; conditions: for MIC: Pseudomonas aeruginosa, read-out: MICs, P∆3-Pore, MOPS-M9 medium; for MICs: P∆3-Pore
Protocol: as §1

P. aeruginosa PAO1 cells = test: LC–MS quantification of intracellular accumulation, PAO1; conditions: 10-80 µM; for Concentration slopes of accumulation, PAO1_1 min: 1 min incubation; for Concentration slopes of accumulation, PAO1_40 min: 40 min incubation;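 as to all read-outs here: slope of accumulation versus external concentration fitted as a line through zero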
Protocol: (§2) PAO1-Pore and PΔ3-Pore were grown at 37 °C overnight with shaking at 225 rpm in 50 mM MOPS-M9 (pH 7.2) Minimal Medium supplemented with 1% glycerol[42],[43].
(§3) The next day, cells were sub-cultured (1.5:100) in fresh MOPS-M9 medium and grown for 16 h. The cultures were then split into two flasks and one of them was induced with 0.1 mM IPTG. Cells incubated for additional 4 h until OD600 reached ~ 1.0 and harvested by centrifugation at 3,275xg for 20 min in RT, washed and concentrated 10X in the spent medium. Assays were performed in 96-well plates in a final volume of […]. Cells were incubated with 10, 20, 40, 80 µM of compounds and after 1- and 40-min incubation at RT, 100 µL cell aliquots were collected by vacuum filtration onto 1.0 µm Glass Fiber Type B filters. For no-cell controls, compounds were diluted to 10, 20, 40, 80 µM final concentration in the same medium, incubated for 1 min and 40 min and filtered onto the same plates. The cell loaded and cell-free filters were dried, removed from plates and placed into 100% methanol at -80 °C for at least 10 min. Filter-bound material was extracted by water bath sonication for 1 min. Cell and filter debris were separated by ultracentrifugation at 45,000 rpm (TLA55 rotor, Beckman) for 8 min at 16 °C and the pellet re-extracted with 80% methanol in water by sonication for 15 min followed by ultracentrifugation at the same conditions. Supernatants from two extractions were combined. For the compound quantification, 5 µL of solution was analyzed in triplicate.
(§4) Calibration curves for MS analyses of compounds were generated in the same experiment by mixing compound at increasing concentrations with the sonicated PAO1 cell extracts. […] Azithromycin was used as a positive control in all experiments.
(§5) Samples were processed in positive ion mode. An Eclipse plus C18 Rapid Resolution HD column (1.8 μm, 2.1 × 50 mm, Agilent, USA) was used for separation. The flow rate was 0.6 mL/min using the following gradient: 0 to 1 min (0- 20% ACN), 1 to 4 min (20- 80% ACN), 4 to 5.1 min (80–100% ACN), 5.1 to 6.30 (100% ACN). Solvents contained 0.1% formic acid to promote positive ion formation in the electrospray. […] Data were analyzed using Agilent Masshunter workstation quantitative analysis v. B.10 software.

[1] = system: P. aeruginosa PAO1-Pore cells; test: LC–MS quantification of intracellular accumulation, PAO1-Pore; conditions: 10-80 µM; for Concentration slopes of accumulation, PAO1-Pore_1 min: 1 min incubation; for Concentration slopes of accumulation, PAO1-Pore_40 min: 40 min incubation;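 as to all read-outs here: slope of accumulation versus external concentration fitted as a line through zero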
Protocol: as §2, §3, §4, §5

P. aeruginosa PΔ3 cells = conditions: 10-80 µM; for Concentration slopes of accumulation, PΔ3_1 min: 1 min incubation; for Concentration slopes of accumulation, PΔ3_40 min: 40 min incubation;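 as to all read-outs here: slope of accumulation versus external concentration fitted as a line through zero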
Protocol: as §2, §3, §4, §5

[2] = system: P. aeruginosa PΔ3-Pore cells; test: LC–MS quantification of intracellular accumulation, PΔ3-Pore; conditions: 10-80 µM; for Concentration slopes of accumulation, PΔ3-Pore_1 min: 1 min incubation; for Concentration slopes of accumulation, PΔ3-Pore_40min: 40 min incubation;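 as to all read-outs here: slope of accumulation versus external concentration fitted as a line through zero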
Protocol: as §2, §3, §4, §5

P. aeruginosa = conditions: sheet "Good" permeators; all listed compounds are good permeators
Protocol: The measured levels of compound accumulation were analyzed using machine learning to determine which features of the compounds are most important for enabling their cellular accumulation and to determine their optimal values. […] To accentuate the permeability aspect, the accumulation slopes in efflux-deficient and hyperporinated strains were normalized to those in the parental PAO1 strain.
To help visualize the data, we performed a principal component (PC) decomposition of the data.

| Compound | MIC (P. aeruginosa PAO1; Pseudomonas aeruginosa) | MICs (P. aeruginosa PAO1-Pore; LB broth, Table S2) | MIC (P. aeruginosa PAO1-Pore) | MIC (P. aeruginosa PΔ3) | MIC (P. aeruginosa PΔ3-Pore) | MICs (P. aeruginosa PΔ3-Pore; LB broth, Table S2) | Concentration slopes of accumulation, PAO1_1 min (P. aeruginosa PAO1 cells) | Concentration slopes of accumulation, PAO1_40 min (P. aeruginosa PAO1 cells) | Concentration slopes of accumulation, PAO1-Pore_1 min [1] | Concentration slopes of accumulation, PAO1-Pore_40 min [1] | Concentration slopes of accumulation, PΔ3_1 min (P. aeruginosa PΔ3 cells) | Concentration slopes of accumulation, PΔ3_40 min (P. aeruginosa PΔ3 cells) | Concentration slopes of accumulation, PΔ3-Pore_1 min [2] | Concentration slopes of accumulation, PΔ3-Pore_40min [2] | Cluster of the identified "good" permeators (P. aeruginosa) | other results |
| --- | --- | --- | --- | --- | --- | --- | --- | --- | --- | --- | --- | --- | --- | --- | --- | --- |
| CCn1cc(C(=O)O)c(=O)c2cc(F)c(N3CCNCC3)cc21 [OU-0000789, Norfloxacin] | 1.25 µM and 0.4 µg/mL | 1 | 0.2 µM and 0.06 µg/mL | 0.625 µM and 0.2 µg/mL | 0.1 µM and 0.03 µg/mL | 0.0156 | 37.81 | 32.76 | 31.44 | 54.56 | 15.28 | 26.08 | 25.07 | 33.05 | 3 |  |
| CC1CN=C(c2ccc(NC(=O)Nc3ccc(C4=NCCN4)cc3)cc2)N1.Cl (stereo not drawn) [OU-0001395] |  |  |  |  |  |  | 3.79 | 6.44 | 2.72 | 7.34 | 8.86 | 5.05 | 1.38 | 4.42 | 1 |  |
| CS(=O)(=O)O.C[C@H]1COc2c(C3(N)CC3)c(F)cc3c(=O)c(C(=O)O)cn1c23 [OU-0000627, PAZUFLOXACIN MESYLATE] |  | 0.25 |  |  |  | 0.0156 |  |  | 5.79 | 7.45 | 3.81 | 5.01 | 5.45 | 5.72 | 1 | MIC (P. aeruginosa PAO1): 0.5 µM; MICs (P. aeruginosa PAO1-Pore; MOPS-M9 medium): 0.03 mg/L; MICs (P. aeruginosa PAO1-Pore; MOPS-M9 medium, listed as Pazufloxacin mesylate): 0.0625 µM; MICs (P. aeruginosa PΔ3): 0.05 mg/L; MICs (P. aeruginosa PΔ3; listed as Pazufloxacin mesylate): 0.125 µM; MICs (P. aeruginosa PΔ3-Pore; MOPS-M9 medium): 0.031 μM and 0.01 mg/L |
| Cc1oc(=O)oc1CN1CCN(c2cc3c(cc2F)c(=O)c(C(=O)O)c2n3C(C)S2)CC1 (stereo not drawn) [OU-0000631, PRULIFLOXACIN] | 0.5 µM and 0.23 µg/mL | 0.0625 | 0.016 µM and 0.01 µg/mL | 0.125 µM and 0.06 µg/mL | 0.004 µM and 0.002 µg/mL | 0.0039 | 10.64 | 11.45 | 7.49 | 9.31 | 7.35 | 8.36 | 5.06 | 5.20 | 3 |  |
| CC(C)(C)OC(=O)N1[C@H](CCC2CCCCC2)CNC(=O)[C@@H]1Cc1cc(F)cc(F)c1 [OU-0032510] |  |  |  |  |  |  | 36.86 | 31.85 | 37.26 | 28.02 | 30.64 | 29.44 | 31.28 | 28.27 | 3 |  |
